From patent US9475817B2 (BRISTOL-MYERS SQUIBB COMPANY, priority 2012, dated 2016)

Key:
CK1ε = CK1ε (Homo sapiens (Human), UniProt P49674); assay: CK1ε kinase assay (Caliper LabChip, fluoresceinated peptide substrate); type: biochemical; settings: 200 pM CK1ε, 50 μM ATP, 1.5 μM peptide substrate, 22 hours room temperature
Protocol: (§1) CK1ε and CK1δ Kinase Assays
(§2) The kinase assay was performed in V-bottom 384-well plates. […] The reaction was incubated at room temperature for 22 hours and terminated by adding 45 μl of 35 mM EDTA to each sample. […] Compounds were dissolved at 10 mM in dimethylsulfoxide (DMSO) and evaluated at eleven concentrations. IC50 values were derived by non-linear regression analysis.

CK1δ = CK1δ (Homo sapiens (Human), UniProt P48730); assay: CK1δ kinase assay (Caliper LabChip, fluoresceinated peptide substrate); type: biochemical; settings: 200 pM CK1δ, 50 μM ATP, 1.5 μM peptide substrate, 22 hours room temperature
Chain of CK1δ (P48730 whole entry): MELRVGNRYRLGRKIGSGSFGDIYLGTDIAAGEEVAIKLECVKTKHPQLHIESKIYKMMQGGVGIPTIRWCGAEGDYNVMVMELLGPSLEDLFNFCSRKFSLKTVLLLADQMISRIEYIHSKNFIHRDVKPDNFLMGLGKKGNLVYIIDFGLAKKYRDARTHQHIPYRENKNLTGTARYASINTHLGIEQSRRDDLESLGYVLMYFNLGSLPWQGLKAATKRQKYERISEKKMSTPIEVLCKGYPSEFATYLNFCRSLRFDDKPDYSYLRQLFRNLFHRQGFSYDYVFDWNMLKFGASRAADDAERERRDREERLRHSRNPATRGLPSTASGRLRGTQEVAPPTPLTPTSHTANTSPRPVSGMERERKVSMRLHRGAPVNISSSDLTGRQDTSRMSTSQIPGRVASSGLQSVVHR
Protocol: as §1, §2

Chain of CK1ε (P49674 whole entry): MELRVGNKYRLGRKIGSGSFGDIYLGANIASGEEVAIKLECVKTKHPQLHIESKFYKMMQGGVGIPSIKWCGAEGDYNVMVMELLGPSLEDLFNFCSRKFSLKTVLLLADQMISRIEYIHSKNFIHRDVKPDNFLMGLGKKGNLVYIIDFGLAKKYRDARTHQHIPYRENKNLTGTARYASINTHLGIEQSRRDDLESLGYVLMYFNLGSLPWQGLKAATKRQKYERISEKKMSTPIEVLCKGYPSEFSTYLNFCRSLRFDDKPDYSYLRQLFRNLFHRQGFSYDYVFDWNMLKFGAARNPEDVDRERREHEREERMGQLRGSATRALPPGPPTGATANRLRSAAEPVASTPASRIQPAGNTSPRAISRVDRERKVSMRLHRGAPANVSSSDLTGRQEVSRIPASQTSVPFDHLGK

Row | IC50 (CK1ε) [nM] | IC50 (CK1δ) [nM] | Compound
1 | 74.9 | 8.5 | O=C(Nc1cn2nc(-c3cn(C4CC4)nc3-c3ccc(F)cc3)ccc2n1)c1csc(-c2ccncc2)n1 [Compound 103, N-(6-(1-Cyclopropyl-3-(4-fluorophenyl)-1H-pyrazol-4-yl)imidazo[1,2-b]pyridazin-2-yl)-2-(pyridin-4-yl)thiazole-4-carboxamide]
2 | 17.3 | 4.3 | Cc1nc(-c2ccccn2)sc1C(=O)Nc1cn2nc(-c3cn(C)nc3-c3ccc(F)cc3)ccc2n1 [Compound 6, N-(6-(3-(4-fluorophenyl)-1-methyl-1H-pyrazol-4-yl)imidazo[1,2-b]pyridazin-2-yl)-4-methyl-2-(pyridin-2-yl)thiazol-5-carboxamide]
3 | 13.7 | 7.3 | Cn1cc(-c2ccc3nc(NC(=O)c4ncccc4Cl)cn3n2)c(-c2ccc(F)cc2)n1 [Compound 36, 3-chloro-N-(6-(3-(4-fluorophenyl)-1-methyl-1H-pyrazol-4-yl)imidazo[1,2-b]pyridazin-2-yl)picolinamide]
4 | 1.5 | 1.4 | Cc1nc(-c2ccncc2)sc1C(=O)Nc1cn2nc(-c3c(-c4ccc(F)cc4)nn(C)c3C3CCNCC3)ccc2n1 [Compound 179, N-(6-(3-(4-Fluorophenyl)-1-methyl-5-(piperidin-4-yl)-1H-pyrazol-4-yl)imidazo[1,2-b]pyridazin-2-yl)-4-methyl-2-(pyridin-4-yl)thiazole-5-carboxamide]
5 | 18.7 | 5.7 | COc1c(F)cc(C(=O)Nc2cn3nc(-c4cn(C)nc4-c4ccc(F)cc4)ccc3n2)cc1F [Compound 61, 3,5-difluoro-N-(6-(3-(4-fluorophenyl)-1-methyl-1H-pyrazol-4-yl)imidazo[1,2-b]pyridazin-2-yl)-4-methoxybenzamide]
6 | 46.5 | 4.8 | O=C(Nc1cn2nc(-c3cn(C4CC4)nc3-c3ccc(F)cc3)ccc2n1)c1cc(F)nc(F)c1 [Compound 105, N-(6-(1-cyclopropyl-3-(4-fluorophenyl)-1H-pyrazol-4-yl)imidazo[1,2-b]pyridazin-2-yl)-2,6-difluoroisonicotinamide]
7 | 5.7 | 0.5 | Cn1nc(-c2ccc(F)cc2)c(-c2ccc3nc(NC(=O)c4ccnc(F)c4)cn3n2)c1C1CCN(C(=O)CC(F)(F)F)CC1 [Compound 151, 2-Fluoro-N-(6-(3-(4-fluorophenyl)-1-methyl-5-(1-(3,3,3-trifluoropropanoyl)piperidin-4-yl)-1H-pyrazol-4-yl)imidazo[1,2-b]pyridazin-2-yl)isonicotinamide]
8 | 18.6 | 0.73 | COCCN1CCN(c2c(-c3ccc4nc(NC(=O)c5ccnc(F)c5)cn4n3)c(-c3ccc(F)cc3)nn2C)CC1 [Compound 120, 2-Fluoro-N-(6-(3-(4-fluorophenyl)-5-(4-(2-methoxyethyl)piperazin-1-yl)-1-methyl-1H-pyrazol-4-yl)imidazo[1,2-b]pyridazin-2-yl)isonicotinamide]
9 | 8.6 | 2.6 | Cn1cc(-c2ccc3nc(NC(=O)c4cccc(F)c4)cn3n2)c(-c2ccc(F)cc2)n1 [Compound 23, 3-fluoro-N-(6-(3-(4-fluorophenyl)-1-methyl-1H-pyrazol-4-yl)imidazo[1,2-b]pyridazin-2-yl)benzamide]
10 | 14 | 3.5 | O=C(Nc1cn2nc(-c3cn(C4CC4)nc3-c3ccc(F)cc3)ccc2n1)c1ccncc1F [Compound 106, N-(6-(1-cyclopropyl-3-(4-fluorophenyl)-1H-pyrazol-4-yl)imidazo[1,2-b]pyridazin-2-yl)-3-fluoroisonicotinamide]
11 | 47.3 | 10.3 | Cn1cc(-c2ccc3nc(NC(=O)CC(F)(F)F)cn3n2)c(-c2ccc(F)cc2)n1 [Compound 99, 3,3,3-trifluoro-N-(6-(3-(4-fluorophenyl)-1-methyl-1H-pyrazol-4-yl)imidazo[1,2-b]pyridazin-2-yl)propanamide]
12 | 0.8 | 1.4 | Cn1nc(-c2ccc(F)cc2)c(-c2ccc3nc(NC(=O)c4ccncc4)cn3n2)c1C1CCN(Cc2ccon2)CC1 [Compound 169, N-(6-(3-(4-fluorophenyl)-5-(1-(isoxazol-3-ylmethyl)piperidin-4-yl)-1-methyl-1H-pyrazol-4-yl)imidazo[1,2-b]pyridazin-2-yl)isonicotinamide]
13 | 1 | 1.5 | Cn1nc(-c2ccc(F)cc2)c(-c2ccc3nc(NC(=O)c4ccnc(N5CCOCC5)c4)cn3n2)c1C1CCNCC1 [Compound 160, N-(6-(3-(4-Fluorophenyl)-1-methyl-5-(piperidin-4-yl)-1H-pyrazol-4-yl)imidazo[1,2-b]pyridazin-2-yl)-2-morpholinoisonicotinamide]
14 | 3.1 | 0.3 | Cn1nc(-c2ccc(F)cc2)c(-c2ccc3nc(NC(=O)c4ccncc4)cn3n2)c1N1CCN(Cc2ccon2)CC1 [Compound 131, N-(6-(3-(4-Fluorophenyl)-5-(4-(isoxazol-3-ylmethyl)piperazin-1-yl)-1-methyl-1H-pyrazol-4-yl)imidazo[1,2-b]pyridazin-2-yl)isonicotinamide]
15 | 22.3 | 8.9 | Cn1cc(-c2ccc3nc(NC(=O)c4cc(F)cc(C#N)c4)cn3n2)c(-c2ccc(F)cc2)n1 [Compound 57, 3-cyano-5-fluoro-N-(6-(3-(4-fluorophenyl)-1-methyl-1H-pyrazol-4-yl)imidazo[1,2-b]pyridazin-2-yl)benzamide]

Continued, compound first:

Row | Compound | IC50 (CK1ε) [nM] | IC50 (CK1δ) [nM]
16 | Cn1nc(-c2ccc(F)cc2)c(-c2ccc3nc(NC(=O)c4ccnc(F)c4)cn3n2)c1N1CCN(C(=O)CN)CC1 [Compound 123, N-(6-(5-(4-(2-Aminoacetyl)piperazin-1-yl)-3-(4-fluorophenyl)-1-methyl-1H-pyrazol-4-yl)imidazo[1,2-b]pyridazin-2-yl)-2-fluoroisonicotinamide] | 0.2 | 0.1
17 | Cn1nc(-c2ccc(F)cc2)c(-c2ccc3nc(NC(=O)c4ccnc(F)c4)cn3n2)c1N1CCN(CCS(C)(=O)=O)CC1 [Compound 126, 2-Fluoro-N-(6-(3-(4-fluorophenyl)-1-methyl-5-(4-(2-(methylsulfonyl)ethyl)piperazin-1-yl)-1H-pyrazol-4-yl)imidazo[1,2-b]pyridazin-2-yl)isonicotinamide] | 124 | 2.9
18 | Cn1nc(-c2ccc(F)cc2)c(-c2ccc3nc(NC(=O)c4ccnc(F)c4)cn3n2)c1C1CCN(CC(N)=O)CC1 [Compound 157, N-(6-(5-(1-(2-Amino-2-oxoethyl)piperidin-4-yl)-3-(4-fluorophenyl)-1-methyl-1H-pyrazol-4-yl)imidazo[1,2-b]pyridazin-2-yl)-2-fluoroisonicotinamide] | 1.3 | 0.3
19 | Cn1cc(-c2ccc3nc(NC(=O)c4cccc(C(F)(F)F)n4)cn3n2)c(-c2ccc(F)cc2)n1 [Compound 65, N-(6-(3-(4-fluorophenyl)-1-methyl-1H-pyrazol-4-yl)imidazo[1,2-b]pyridazin-2-yl)-6-(trifluoromethyl) picolinamide] | 158 | 24.7
20 | Cn1cc(-c2ccc3nc(NC(=O)c4ccc(-n5cccn5)nc4)cn3n2)c(-c2ccc(F)cc2)n1 [Compound 71, N-(6-(3-(4-fluorophenyl)-1-methyl-1H-pyrazol-4-yl)imidazo[1,2-b]pyridazin-2-yl)-6-(1H-pyrazol-1-yl)nicotinamide] | 17.3 | 3.8
21 | Cn1nc(-c2ccc(F)cc2)c(-c2ccc3nc(NC(=O)c4ccnc(N)c4)cn3n2)c1N1CCN(CCC(F)(F)F)CC1 [Compound 141, 2-Amino-N-(6-(3-(4-fluorophenyl)-1-methyl-5-(4-(3,3,3-trifluoropropyl)piperazin-1-yl)-1H-pyrazol-4-yl)imidazo[1,2-b]pyridazin-2-yl)isonicotinamide] | 32 | 2.5
22 | Cn1nc(-c2ccc(F)cc2)c(-c2ccc3nc(NC(=O)c4ccnc(N)c4)cn3n2)c1N1CCN(Cc2ccon2)CC1 [Compound 142, 2-Amino-N-(6-(3-(4-fluorophenyl)-5-(4-(isoxazol-3-ylmethyl)piperazin-1-yl)-1-methyl-1H-pyrazol-4-yl)imidazo[1,2-b]pyridazin-2-yl)isonicotinamide] | 2.2 | 0.3
23 | CN(C)c1ccc(C(=O)Nc2cn3nc(-c4cn(C)nc4-c4ccc(F)cc4)ccc3n2)cn1 [Compound 66, 6-(dimethylamino)-N-(6-(3-(4-fluorophenyl)-1-methyl-1H-pyrazol-4-yl)imidazo[1,2-b]pyridazin-2-yl)nicotinamide] | 6.6 | 2.8
24 | Cn1nc(-c2ccc(F)cc2)c(-c2ccc3nc(NC(=O)c4ccnc(N)c4)cn3n2)c1N1CCNCC1 [Compound 140, 2-Amino-N-(6-(3-(4-fluorophenyl)-1-methyl-5-(piperazin-1-yl)-1H-pyrazol-4-yl)imidazo[1,2-b]pyridazin-2-yl)isonicotinamide] | 2.4 | 2.5
25 | Cn1cc(-c2ccc3nc(NC(=O)c4ccccc4)c(F)n3n2)c(-c2ccc(F)cc2)n1 [Compound 192, N-(3-Fluoro-6-(3-(4-fluorophenyl)-1-methyl-1H-pyrazol-4-yl)imidazo[1,2-b]pyridazin-2-yl)benzamide] | 23.3 | 5.6
26 | Cc1nc(-c2ccncc2)sc1C(=O)Nc1cn2nc(-c3c(-c4ccc(F)cc4)nn(C)c3C3CCN(CC(N)=O)CC3)ccc2n1 [Compound 184, N-(6-(5-(1-(2-Amino-2-oxoethyl)piperidin-4-yl)-3-(4-fluorophenyl)-1-methyl-1H-pyrazol-4-yl)imidazo[1,2-b]pyridazin-2-yl)-4-methyl-2-(pyridin-4-yl)thiazole-5-carboxamide] | 1.2 | 0.3
27 | Cn1cc(-c2ccc3nc(NC(=O)c4ccccc4)c(C#N)n3n2)c(-c2ccc(F)cc2)n1 [Compound 190, N-(3-Cyano-6-(3-(4-fluorophenyl)-1-methyl-1H-pyrazol-4-yl)imidazo[1,2-b]pyridazin-2-yl)benzamide] | 14.5 | 4.2
